Data on 31 molecules can be found in patent publication US8357694B2, “Substituted 5,6-dihydro-6-phenylbenzo[F]isoquinolin-2-amine compounds” (ArQule, Inc., priority 2008, dated 2013).

What is called melting point is the temperature, or range, at which the solid turns liquid.

Where a name gives a salt, the structure may show the parent alone.

With `COCCNCc1cccc(Nc2ncc3c(n2)-c2ccccc2[C@H](c2ccccc2F)C3)c1` (as salt: hydrochloride) [Example 178, (R)-6-(2-fluorophenyl)-N-(3-((2-methoxyethylamino)methyl)phenyl)-5,6-dihydrobenzo[h]quinazolin-2-amine hydrochloride], the melting point fell in the range of 158 to 163 °C.

`CC(C)(C)OC(=O)N1CCN(CCc2ccc(Nc3ncc4c(n3)-c3ccccc3C(c3ccccc3C(F)(F)F)C4)cc2)CC1` (stereo not shown) [Example 72, tert-butyl 4-(4-(6-(2-(trifluoromethyl)phenyl)-5,6-dihydrobenzo[h]quinazolin-2-ylamino)phenethyl)piperazine-1-carboxylate] came in with a melting point of 234 to 235 °C.

In the case of `Fc1ccccc1[C@@H]1Cc2cnc(Nc3cccc(CCN4CCNCC4)c3)nc2-c2ccccc21` (as salt: hydrochloride) [Example 160, (R)-6-(2-fluorophenyl)-N-(3-(2-(piperazin-1-yl)ethyl)phenyl)-5,6-dihydrobenzo[h]quinazolin-2-amine hydrochloride], the melting point lay within 193 to 199 °C.

The molecule `COCCN1CCN(CCc2cccc(Nc3ncc4c(n3)-c3ccccc3[C@@H](c3ccccc3F)C4)c2)CC1` (as salt: hydrochloride) [Example 164, (S)-6-(2-fluorophenyl)-N-(3-(2-(4-(2-methoxyethyl)piperazin-1-yl)ethyl)phenyl)-5,6-dihydrobenzo[h]quinazolin-2-amine] had a melting point of 148 to 150 °C.

The molecule `CN1CCN(CCc2ccc(Nc3ncc4c(n3)-c3ccccc3[C@H](c3ccc(F)c(F)c3)C4)cc2)CC1` (as salt: hydrochloride) [Example 88, (S)-6-(3,4-difluorophenyl)-N-(4-(2-(4-methylpiperazin-1-yl)ethyl)phenyl)-5,6-dihydrobenzo[h]quinazolin-2-amine hydrochloride] yielded a melting point of 90 to 92 °C.

With `CN(CCc1ccc(Nc2ncc3c(n2)-c2ccccc2C(c2ccc(F)c(F)c2)C3)cc1)C1CCCCC1` (stereo not shown) (as salt: hydrochloride) [Example 60, N-(4-(2-(cyclohexyl(methyl)amino)ethyl)phenyl)-6-(3,4-difluorophenyl)-5,6-dihydrobenzo[h]quinazolin-2-amine], the melting point is 107 to 114 °C.

`CN(C)CCc1ccc(Nc2ncc3c(n2)-c2ccccc2[C@H](c2ccc(F)c(F)c2)C3)cc1` (as salt: hydrochloride) [Example 87, (S)-6-(3,4-difluorophenyl)-N-(4-(2-(dimethylamino)ethyl)phenyl)-5,6-dihydrobenzo[h]quinazolin-2-amine hydrochloride] had a melting point of 165 to 167 °C.

In the case of `COCCN1CCN(CCc2ccc(Nc3ncc4c(n3)-c3ccccc3C(c3cccc(Br)c3)C4)cc2)CC1` (stereo not shown) [Example 32, 6-(3-bromophenyl)-N-(4-(2-(4-(2-methoxyethyl)piperazin-1-yl)ethyl)phenyl)-5,6-dihydrobenzo[h]quinazolin-2-amine], the melting point lay in the range of 105 to 107 °C.

In the case of `Clc1ccc(C2Cc3cnc(Nc4ccc(CCN5CCOCC5)cc4)nc3-c3ccccc32)cc1Cl` (stereo not shown) [Example 50, 6-(3,4-dichlorophenyl)-N-(4-(2-morpholinoethyl)phenyl)-5,6-dihydrobenzo[h]quinazolin-2-amine], the melting point was 180 to 181 °C.

Take `CN(CCc1ccccc1)CCc1cccc(Nc2ncc3c(n2)-c2ccccc2[C@H](c2ccc(Cl)c(Cl)c2)C3)c1` (as salt: hydrochloride): the melting point is 154 to 157 °C.

Molecule `CN(C)CCN(CCc1ccc(Nc2ncc3c(n2)-c2ccccc2C(c2cccc(Br)c2)C3)cc1)Cc1ccccc1` (stereo not shown) [Example 38, N^1-benzyl-N-1-(4-(6-(3-bromophenyl)-5,6-dihydrobenzo[h]quinazolin-2-ylamino)phenethyl)-N^2,N^2-dimethylethane-1,2-diamine] yielded a melting point of 68 to 70 °C.

In the case of `COCCN1CCN(CCc2ccc(Nc3ncc4c(n3)-c3ccccc3[C@H](c3ccc(Br)cc3)C4)cc2)CC1` (as salt: hydrochloride) [Example 97, (S)-6-(4-bromophenyl)-N-(4-(2-(4-(2-methoxyethyl)piperazin-1-yl)ethyl)phenyl)-5,6-dihydrobenzo[h]quinazolin-2-amine hydrochloride salt], the melting point fell in the range of 265 to 270 °C.

`NCCc1ccc(Nc2ncc3c(n2)-c2ccccc2C(c2cccc(Br)c2)C3)cc1` (stereo not shown) [Example 34, N-(4-(2-aminoethyl)phenyl)-6-(3-bromophenyl)-5,6-dihydrobenzo[h]quinazolin-2-amine] gave a melting point of 115 to 117 °C.

On to `CC(C)(C)OC(=O)N1CCC[C@@H](Nc2ncc3c(n2)-c2ccccc2[C@H](c2ccc(Cl)c(Cl)c2)C3)C1`, for which the melting point is 85 to 87 °C.

With `OCCc1ccc(Nc2ncc3c(n2)-c2ccccc2C(c2ccc(Cl)cc2)C3)cc1` (stereo not shown) [Example 22, 2-(4-(6-(4-chlorophenyl)-5,6-dihydrobenzo[h]quinazolin-2-ylamino)phenyl)ethanol], the melting point lay within 163 to 164 °C.

In turn, `CS(=O)(=O)OCCc1cc(Nc2ncc3c(n2)-c2ccccc2[C@H](c2ccccc2F)C3)ccc1F` [Example 170, (R)-2-fluoro-5-(6-(2-fluorophenyl)-5,6-dihydrobenzo[h]quinazolin-2-ylamino)phenethyl methanesulfonate] had a melting point of 99 to 100 °C.

As to `COCCN(CCOC)CCc1ccc(Nc2ncc3c(n2)-c2ccccc2C(c2cccc(Br)c2)C3)cc1` (stereo not shown) [Example 42, N-(4-(2-(bis(2-methoxyethyl)amino)ethyl)phenyl)-6-(3-bromophenyl)-5,6-dihydrobenzo[h]quinazolin-2-amine], the melting point lay in the range of 58 to 60 °C.

As to `CN1CCN(CCc2ccc(Nc3ncc4c(n3)-c3ccccc3C(c3ccccc3C(F)(F)F)C4)cc2)CC1` (stereo not shown) [Example 71, N-(4-(2-(4-methylpiperazin-1-yl)ethyl)phenyl)-6-(2-(trifluoromethyl)phenyl)-5,6 dihydrobenzo[h]quinazolin-2-amine], the melting point was 157 to 158 °C.

The molecule `CCCCN(C)CCc1ccc(Nc2ncc3c(n2)-c2ccccc2[C@H](c2ccc(F)c(F)c2)C3)cc1` (as salt: hydrochloride) [Example 89, (S)—N-(4-(2-(butyl(methyl)amino)ethyl)phenyl)-6-(3,4-difluorophenyl)-5,6-dihydrobenzo[h]quinazolin-2-amine hydrochloride] had a melting point of 130 to 132 °C.

Molecule `Brc1cccc(C2Cc3cnc(Nc4ccc(CCN5CCN(c6ccccc6)CC5)cc4)nc3-c3ccccc32)c1` (stereo not shown) [Example 43, 6-(3-bromophenyl)-N-(4-(2-(4-phenylpiperazin-1-yl)ethyl)phenyl)-5,6-dihydrobenzo[h]quinazolin-2-amine] came in with a melting point of 113 to 115 °C.

Turning to `COCCN1CCN(CCc2cccc(Nc3ncc4c(n3)-c3ccccc3[C@H](c3ccc(Cl)c(Cl)c3)C4)c2)CC1` (as salt: hydrochloride), the melting point lay within 220 to 225 °C.

For the molecule `Clc1ccccc1[C@H]1Cc2cnc(Nc3ccc(CCN4CCCCC4)cc3)nc2-c2ccccc21` (as salt: hydrochloride), the melting point is 164 to 167 °C.

Molecule `OCCc1ccc(Nc2ncc3c(n2)-c2ccccc2C(c2cccc(Br)c2)C3)cc1` (stereo not shown) [Example 7, 2-(4-(6-(3-bromophenyl)-5,6-dihydrobenzo[h]quinazolin-2-ylamino)phenyl)ethanol] came in with a melting point of 88 to 90 °C.

As to `CN(CCc1ccccc1)CCc1ccc(Nc2ncc3c(n2)-c2ccccc2[C@H](c2ccc(Cl)c(Cl)c2)C3)cc1` (as salt: hydrochloride) [Example 104, (S)-6-(3,4-dichlorophenyl)-N-(4-(2-(methyl(phenethyl)amino)ethyl)phenyl)-5,6-dihydrobenzo[h]quinazolin-2-amine hydrochloride salt], the melting point fell in the range of 170 to 175 °C.

For the molecule `CN(C)CCCNc1ncc2c(n1)-c1ccccc1[C@H](c1ccc(Cl)c(Cl)c1)C2` [Example 13, (S)—N^1-(6-(3,4-dichlorophenyl)-5,6-dihydrobenzo[h]quinazolin-2-yl)-N^3,N^3-dimethylpropane-1,3-diamine], the melting point is 59 to 62 °C.

Molecule `CCN(CCc1ccc(Nc2ncc3c(n2)-c2ccccc2C(c2cccc(Br)c2)C3)cc1)Cc1ccncc1` (stereo not shown) [Example 41, 6-(3-bromophenyl)-N-(4-(2-(ethyl(pyridin-4-ylmethyl)amino)ethyl)phenyl)-5,6-dihydrobenzo[h]quinazolin-2-amine] had a melting point of 88 to 90 °C.

For `Clc1ccc(C2Cc3cnc(Nc4ccc(CCN5CCCCC5)cc4)nc3-c3ccccc32)cc1` (stereo not shown) (as salt: hydrochloride) [Example 53, 6-(4-chlorophenyl)-N-(4-(2-(piperidin-1-yl)ethyl)phenyl)-5,6 dihydrobenzo[h]quinazolin-2-amine], the melting point fell in the range of 170 to 175 °C.

`Clc1ccc(C2Cc3cnc(Nc4ccc(CCN5CCCCC5)cc4)nc3-c3ccccc32)c(Cl)c1` (stereo not shown) (as salt: hydrochloride) [Example 76, 6-(2,4-dichlorophenyl)-N-(4-(2-(piperidin-1-yl)ethyl)phenyl)-5,6-dihydrobenzo[h]quinazolin-2-amine hydrochloride] yielded a melting point of 225 to 230 °C.

Regarding `COCCN1CCN(CCc2ccc(Nc3ncc4c(n3)-c3ccccc3[C@H](c3ccccc3F)C4)cc2)CC1` (as salt: hydrochloride) [Example 66, (R)-6-(2-fluorophenyl)-N-(4-(2-(4-(2-methoxyethyl)piperazin-1-yl)ethyl)phenyl)-5,6-dihydrobenzo[h]quinazolin-2-amine hydrochloride], the melting point was in the range of 212 to 216 °C.

Take `COCCNCc1cccc(Nc2ncc3c(n2)-c2ccccc2[C@H](c2ccccc2F)C3)c1` (as salt: HCl) [Example 158, (R)-6-(2-fluorophenyl)-N-(3-((2-methoxyethylamino)methyl)phenyl)-5,6-dihydrobenzo[h]quinazolin-2-amine]: the melting point lay in the range of 139 to 147 °C.

For `CCCCN(C)CCc1ccc(Nc2ncc3c(n2)-c2ccccc2[C@H](c2ccc(F)cc2)C3)cc1` [Example 99, (S)—N-(4-(2-(butyl(methyl)amino)ethyl)phenyl)-6-(4-fluorophenyl)-5,6-dihydrobenzo[h]quinazolin-2-amine], the melting point lay in the range of 164 to 166 °C.
